How the values were obtained:
[1] = biological target: T1, human bradykinin 1 receptor (B1R) (Homo sapiens, UniProt P46663); assay: Functional investigation on the human bradykinin 1 receptor (B1R), Ca2+ FLIPR assay in CHO K1 hB1R cells; assay type: cell-based; details: test substance 10 μM, Ca2+ FLIPR, CHO K1 hB1R cells; for inhibition at 10 µM: CHO-K1, B1R antagonism human, read-out: B1R Ant. h [10 μM] % Inhibition
T1 construct: expressed in transfected cells; host or cells: CHO K1 cells
T1 sequence (P46663 1-353): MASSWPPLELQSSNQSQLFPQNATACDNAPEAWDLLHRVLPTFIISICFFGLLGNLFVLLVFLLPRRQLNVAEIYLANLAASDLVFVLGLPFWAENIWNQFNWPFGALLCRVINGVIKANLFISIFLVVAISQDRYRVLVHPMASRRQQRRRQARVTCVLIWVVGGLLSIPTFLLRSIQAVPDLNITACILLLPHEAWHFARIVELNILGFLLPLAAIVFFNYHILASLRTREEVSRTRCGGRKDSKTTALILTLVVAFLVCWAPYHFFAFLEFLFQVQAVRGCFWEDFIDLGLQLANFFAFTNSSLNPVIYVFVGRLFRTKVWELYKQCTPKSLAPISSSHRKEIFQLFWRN
Source text: (§1) Functional Investigation on the Human Bradykinin 1 Receptor (B1R)
(§2) The agonistic or antagonistic action of substances can be determined on the bradykinin 1 receptor (B1R) of the human species and rats with the following assay. In accordance with this assay, the Ca^2+ inflow through the channel is quantified with the aid of a Ca^2=-sensitive dyestuff (type Fluo-4, Molecular Probes Europe BV, Leiden, Holland) in a fluorescent imaging plate reader (FLIPR, Molecular Devices, Sunnyvale, USA).
(§3) Chinese hamster ovary cells (CHO K1 cells) transfected stably with the human B1R gene (hB1R cells) or the B1R gene of the rat (rB1R cells) are used. For functional studies, these cells are plated out on black 96-well plates with a clear base (BD Biosciences, Heidelberg, Germany or Greiner, Frickenhausen, Germany) in a density of 20,000-35,000 cells/well. The cells are left overnight at 37° C. and 5% CO2 in culture medium (hB1R cells: Nutrient Mixture Ham's F12, Gibco Invitrogen GmbH, Karlsruhe, Germany or DMEM, Sigma-Aldrich, Taufkirchen, Germany; rB1R cells: D-MEM/F12, Gibco Invitrogen GmbH, Karlsruhe, Germany) with 10 vol. % of FBS (foetal bovine serum, Gibco Invitrogen GmbH, Karlsruhe, Germany or PAN Biotech GmbH, Aidenbach, Germany).
(§4) On the following day, the cells are loaded for 60 min at 37° C. with 2.13 μM Fluo-4 (Molecular Probes Europe BV, Leiden, The Netherlands) in HBSS buffer (Hank's buffered saline solution, Gibco Invitrogen GmbH, Karlsruhe, Germany) with 2.5 mM probenecid (Sigma-Aldrich, Taufkirchen, Germany) and 10 mM HEPES (Sigma-Aldrich, Taufkirchen, Germany). The plates are then washed 2× with HBSS buffer, and HBSS buffer which additionally contains 0.1% of BSA (bovine serum albumin; Sigma-Aldrich, Taufkirchen, Germany), 5.6 mM glucose and 0.05% of gelatine (Merck KGaA, Darmstadt, Germany) is added. After a further incubation of 20 minutes at room temperature, the plates are inserted into the FLIPR for the Ca^2+ measurement.
(§5) Alternatively, the plates are washed with buffer A (15 mM HEPES, 80 mM NaCl, 5 mM KCl, 1.2 mM CaCl2, 0.7 mM MgSO4, 2 g/l glucose, 2.5 mM probenecid), buffer A is added and the plates are loaded with 2.5 μM Fluo-4 and 0.025% of Pluronic F127 (Sigma-Aldrich, Taufkirchen, Germany). Thereafter, the cells are washed 2× with buffer A and incubated for 30 minutes with buffer A, which additionally contains 0.05% of BSA and 0.05% of gelatine, at room temperature and thereafter inserted into the FLIPR for the Ca^2+ measurement.
(§6) The Ca^2+-dependent fluorescence is measured before and after addition of substances (λex=488 nm, λem=540 nm). Quantification is by measurement of the highest fluorescence intensity (FC, fluorescence counts) over time.
(§7) The FLIPR protocol consists of 2 additions of substance. Test substances (10 μM) are first pipetted on to the cells and the Ca^2+ inflow is compared with the control (hB1R: Lys-Des-Arg^9-bradykinin >=50 nM; rB1R: Des-Arg^9-bradykinin 10 μM). This gives the information in % activation based on the Ca^2+ signal after addition of Lys-Des-Arg^9-bradykinin (>=50 nM) or Des-Arg^9-bradykinin (10 μM).
(§8) After incubation for 10-20 minutes, Lys-Des-Arg^9-bradykinin (hB1R) or Des-Arg^9-bradykinin (rB1R) is applied in the concentration of the EC80 and the inflow of Ca^2+ is likewise determined.
(§9) Antagonists lead to a suppression of the Ca^2+ inflow. % inhibition compared with the maximum achievable inhibition is calculated.
(§10) To determine the IC50 value, the substances are added in various concentrations. Duplicate or triplicate determinations (n=2 or n=3) are carried out, and these are repeated in at least one further independent experiment (N>=2).
(§11) Preferably, the compounds have a B1R antagonistic action on the human receptor and/or on the rat receptor. The following data are given by way of example in the following table: (In this, “B1R Ant. h” represents “B1R antagonism human” and “B1R Ant. r” represents “B1R antagonism rat”)

[2] = biological target: T2, bradykinin 1 receptor (B1R) of the rat (Rattus norvegicus, UniProt P97583); assay: Functional investigation on the rat bradykinin 1 receptor (B1R), Ca2+ FLIPR assay in CHO K1 rB1R cells; assay type: cell-based; details: test substance 10 μM, Ca2+ FLIPR, CHO K1 rB1R cells; for inhibition at 10 µM: CHO-K1, B1R antagonism rat, read-out: B1R Ant. r [10 μM] % Inhibition
T2 construct: expressed in transfected cells; host or cells: CHO K1 cells
T2 sequence (P97583 1-337): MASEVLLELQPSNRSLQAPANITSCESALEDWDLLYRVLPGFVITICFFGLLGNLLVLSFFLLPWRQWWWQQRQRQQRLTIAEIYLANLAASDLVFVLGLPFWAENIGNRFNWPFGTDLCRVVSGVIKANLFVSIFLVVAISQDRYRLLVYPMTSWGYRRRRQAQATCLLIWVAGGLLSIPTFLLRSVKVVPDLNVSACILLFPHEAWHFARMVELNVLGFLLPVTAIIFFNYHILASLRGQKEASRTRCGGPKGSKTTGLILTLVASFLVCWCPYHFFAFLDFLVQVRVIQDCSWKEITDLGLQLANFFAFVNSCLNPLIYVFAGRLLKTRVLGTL
Source text: as §1, §2, §3, §4, §5, §6, §7, §8, §9, §10, §11

Work on CN(C)C(c1cccc(F)c1)C1CCC(CNC(=O)CNC(=O)c2nc(-c3ccc(C(F)(F)F)cc3)no2)CC1 (centres unmarked) [Example 778, 3-(4-trifluoromethyl-phenyl)-[1,2,4]oxadiazole-5-carboxylic acid [({4-[dimethylamino-(3-fluoro-phenyl)-methyl]-cyclohexylmethyl}-carbamoyl)-methyl]-amide] yielded an inhibition at 10 µM [1] of -1% and an inhibition at 10 µM [2] of 12%.

In the case of CN(C)C(CCc1ccccc1)C1CCC(NC(=O)CNC(=O)c2nc(-c3ccc(C(C)(C)C)cc3)no2)CC1 (centres unmarked) [Example 786, 3-(4-tert-butyl-phenyl)-[1,2,4]oxadiazole-5-carboxylic acid {[4-(1-dimethylamino-3-phenyl-propyl)-cyclohexylcarbamoyl]-methyl}-amide], the inhibition at 10 µM [1] is reported as 35% and the inhibition at 10 µM [2] is reported as -4%.

CN(C)C(c1cccc(F)c1)C1CCC(CNC(=O)CCNC(=O)c2nc(-c3cccs3)no2)CC1 (centres unmarked) [Example 780, 3-thiophen-2-yl-[1,2,4]oxadiazole-5-carboxylic acid [2-({4-[dimethylamino-(3-fluoro-phenyl)-methyl]-cyclohexylmethyl}-carbamoyl)-ethyl]-amide] showed an inhibition at 10 µM [1] of -12% and an inhibition at 10 µM [2] of -2%.

CN(C)C(c1ccccc1)C1CCC(NC(=O)CNC(=O)c2nc(-c3ccc(C(C)(C)C)cc3)no2)CC1 (centres unmarked) [Example 766, 3-(4-tert-butyl-phenyl)-[1,2,4]oxadiazole-5-carboxylic acid {[4-(dimethylamino-phenyl-methyl)-cyclohexylcarbamoyl]-methyl}-amide] showed an inhibition at 10 µM [1] of 6% and an inhibition at 10 µM [2] of -9%.

COc1ccccc1-c1noc(C(=O)NCC(=O)NC2CCC(C(c3ccccc3)N(C)C)CC2)n1 (centres unmarked) [Example 763, 3-(2-methoxy-phenyl)-[1,2,4]oxadiazole-5-carboxylic acid {[4-(dimethylamino-phenyl-methyl)-cyclohexylcarbamoyl]-methyl}-amide] gave an inhibition at 10 µM [1] of -10% and an inhibition at 10 µM [2] of 22%.

With CN(CCOCC(=O)NC1CCC(C(c2ccccc2)N2CCOCC2)CC1)S(=O)(=O)c1c(Cl)cc(Cl)cc1Cl (centres unmarked) [Example 607, 2-{2-[methyl-(2,4,6-trichlorobenzenesulfonyl)-amino]-ethoxy}-N-[4-(morpholin-4-ylphenylmethyl)-cyclohexyl]-acetamide] the “B1R Ant. h [10 μM] % Inhibition” value ([1]; B1R antagonism human) was 12% and the “B1R Ant. r [10 μM] % Inhibition” value ([2]; B1R antagonism rat) was 3%.

Cc1cc(Cl)cc(Cl)c1-c1noc(C(=O)NCC(=O)NC2CCC(C(c3ccccc3)N(C)C)CC2)n1 (centres unmarked) [Example 762, 3-(2,4-dichloro-6-methyl-phenyl)-[1,2,4]oxadiazole-5-carboxylic acid {[4-(dimethylamino-phenyl-methyl)-cyclohexylcarbamoyl]-methyl}-amide] gave an inhibition at 10 µM [1] of 73% and an inhibition at 10 µM [2] of 25%.

COc1ccccc1-c1noc(C(=O)NCC(=O)NCC2CCC(C(c3cccc(F)c3)N(C)C)CC2)n1 (centres unmarked) [Example 787, 3-(2-methoxy-phenyl)-[1,2,4]oxadiazole-5-carboxylic acid [({4-[dimethylamino-(3-fluoro-phenyl)-methyl]-cyclohexylmethyl}-carbamoyl)-methyl]-amide] showed an inhibition at 10 µM [1] of 19% and an inhibition at 10 µM [2] of 11%.

For CN(C)C(c1cccc(F)c1)C1CCC(CNC(=O)CNC(=O)c2nc(CS(=O)(=O)c3ccccc3)no2)CC1 (centres unmarked) [Example 781, 3-benzenesulfonylmethyl-[1,2,4]oxadiazole-5-carboxylic acid [({4-[dimethylamino-(3-fluoro-phenyl)-methyl]-cyclohexylmethyl}-carbamoyl)-methyl]-amide], the inhibition at 10 µM [1] was -4% and the inhibition at 10 µM [2] was -35%.

Cc1cc(C)c(-c2noc(C(=O)NCC(=O)NC3CCC(C(c4ccccc4)N(C)C)CC3)n2)c(C)c1 (centres unmarked) [Example 772, 3-(2,4,6-trimethyl-phenyl)-[1,2,4]oxadiazole-5-carboxylic acid {[4-(dimethylamino-phenyl-methyl)-cyclohexylcarbamoyl]-methyl}-amide] was tested, and the inhibition at 10 µM [1] was 11% and the inhibition at 10 µM [2] was 41%.

Source: patent publication US8106055B2, “Substituted amide compounds” (Gruenenthal GmbH, priority 2007, dated 2012)
